Results taken from publication PMC5653977 (EMBO Molecular Medicine, 2017).

How the values were obtained:
Erbb4 [1] = biological target: T1, Erbb4 (Mus musculus, UniProt Q61527); assay: Western blot of phospho-Erbb4 in prefrontal cortex of spironolactone-treated mice; assay type: in vivo; details: Nrg1-tg mice, 50 mg/kg s.c. daily for 21 days, prefrontal cortex lysates
T1 construct: from tissue; host or cells: prefrontal cortex of Nrg1-tg and wt mice (C57Bl/6)
Procedure: (§1) For the generation of lysates, the isolated tissue was immediately placed into cooled (4°C) sucrose buffer (320 mM sucrose, 10 mM Tris–HCl, 1 mM NaHCO3, 1 mM MgCl2, supplemented with 10 mM NaF, 1 mM […], 1 mM ZnCl2, 4.5 mM Na4P20_7 as phosphatase inhibitors, and the complete protease inhibitor cocktail (Roche)), homogenized using an ultra‐turrax (IKA GmbH, Staufen, Germany), sonicated (3 pulses for 10 s), and denatured for 10 min at 70°C in LDS sample buffer.
(§2) Each blot was replicated two times.
Treatment was continued throughout the behavioral analysis period.

NRG1-ERBB4 signaling = assay: Nrg1-ERBB4-PIK3R1 split TEV co-culture compound screen of the NIH Clinical Collection; assay type: cell-based, human; details: compounds at 10 μM, 24 h; PC12 split TEV assay cells co-cultured with Nrg1-expressing PC12 cells; analysed with cellHTS2
ERBB4 [2] = biological target: ERBB4 (Homo sapiens, UniProt Q15303); assay: Western blot of ERBB4 phosphorylation in transfected PC12 cells; assay type: cell-based; details: PC12 cells transfected with ERBB4-NTEV-tevS-GV, 10 ng/ml EGFld, 10 μM, 1 h
Sequence of ERBB4 (Q15303 26-1308): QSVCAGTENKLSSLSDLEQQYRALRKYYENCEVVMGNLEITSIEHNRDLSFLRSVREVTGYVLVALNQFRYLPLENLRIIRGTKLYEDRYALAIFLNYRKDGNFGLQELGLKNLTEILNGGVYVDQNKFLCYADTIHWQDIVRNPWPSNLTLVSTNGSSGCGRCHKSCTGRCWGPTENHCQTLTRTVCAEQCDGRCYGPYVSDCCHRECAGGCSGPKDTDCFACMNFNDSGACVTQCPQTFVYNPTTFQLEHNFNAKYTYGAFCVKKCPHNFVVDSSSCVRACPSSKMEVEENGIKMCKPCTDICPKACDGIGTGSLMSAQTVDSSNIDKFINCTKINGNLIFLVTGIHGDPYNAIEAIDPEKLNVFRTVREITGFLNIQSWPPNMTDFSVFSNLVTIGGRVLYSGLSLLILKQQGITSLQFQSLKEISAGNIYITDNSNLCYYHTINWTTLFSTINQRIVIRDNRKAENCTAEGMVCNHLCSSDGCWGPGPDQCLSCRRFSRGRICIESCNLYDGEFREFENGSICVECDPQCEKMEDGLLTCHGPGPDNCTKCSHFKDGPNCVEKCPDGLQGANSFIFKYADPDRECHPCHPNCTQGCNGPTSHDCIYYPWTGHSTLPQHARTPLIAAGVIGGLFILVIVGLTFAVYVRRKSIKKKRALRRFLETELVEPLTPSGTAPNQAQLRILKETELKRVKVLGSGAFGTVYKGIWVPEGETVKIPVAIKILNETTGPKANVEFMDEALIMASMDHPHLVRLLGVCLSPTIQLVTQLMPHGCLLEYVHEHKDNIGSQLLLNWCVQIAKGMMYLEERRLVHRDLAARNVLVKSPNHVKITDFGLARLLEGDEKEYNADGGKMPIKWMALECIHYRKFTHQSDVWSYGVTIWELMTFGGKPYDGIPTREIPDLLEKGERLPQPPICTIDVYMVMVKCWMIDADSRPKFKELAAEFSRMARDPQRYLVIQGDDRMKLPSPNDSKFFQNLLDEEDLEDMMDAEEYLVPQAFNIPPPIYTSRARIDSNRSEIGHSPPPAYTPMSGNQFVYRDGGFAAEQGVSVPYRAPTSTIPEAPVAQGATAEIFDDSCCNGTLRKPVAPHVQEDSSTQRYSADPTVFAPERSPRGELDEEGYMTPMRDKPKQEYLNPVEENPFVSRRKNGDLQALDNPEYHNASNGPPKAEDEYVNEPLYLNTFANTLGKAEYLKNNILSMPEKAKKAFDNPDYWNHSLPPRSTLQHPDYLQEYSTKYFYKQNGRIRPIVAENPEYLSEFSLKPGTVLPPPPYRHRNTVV
Procedure: After 24 h of expression, cells were treated as indicated and lysed in a 1% Triton‐X lysis buffer (50 mM Tris [pH 7.5], 150 mM NaCl, 1% Triton X‐100, 1 mM EGTA) supplemented with 10 mM NaF, 1 mM […], 1 mM ZnCl2 4.5 mM Na4P20_7, as phosphatase inhibitors, and the complete protease inhibitor cocktail (Roche).
as §2

Limk1 = assay: Western blot of phospho-Limk1 in prefrontal cortex of spironolactone-treated mice; assay type: in vivo, mouse; details: Nrg1-tg mice, 50 mg/kg s.c. daily for 21 days, prefrontal cortex lysates
Procedure: as §1, §2
Treatment was continued throughout the behavioral analysis period. To avoid injection‐induced stress prior to behavioral testing, mice were injected in the afternoon, after the entire cohort has completed the behavioral paradigm.

[3] = biological target: EGFR-NTEV-tevS-GV + ERBB2-CTEV (Homo sapiens, UniProt P00533+P04626); assay: ERBB dimerization split TEV assay EGFR/ERBB2; assay type: cell-based; details: 10 ng/ml EGFld
Description: (§3) Gateway recombination cloning (Life Technologies) was applied for generating plasmids. Each ORF cloned was PCR‐amplified using the Pwo proofreading DNA polymerase (Roche) and BP‐recombined into the pDONR/Zeo plasmid (Life Technologies) to yield an entry vector, which was control‐digested using BsrGI to release the insert, and sequence‐verified. The following human ORFs were cloned using cDNA image clones ordered from Source BioScience: ERBB4 transcript variant JM‐a/CYT‐1 (Accession: BC112199), PIK3R1 (BC094795), GRB2 transcript variant 1 (BC000631), SHC1 transcript variant 2 (BC014158), STAT5A (BC027036), and SRC transcription variant 1 (BC051270). For EGFR, ERBB2, and ERBB3, entry vectors were obtained from the human CCSB kinase collection available from Addgene (Johannessen et al, 2010). Entry vectors were LR‐recombined into split TEV destination vectors [either pcDNA_attR1‐ORF‐attR2‐NTEV‐tevS‐GV‐2xHA_DEST or pTag4C_attR1‐ORF‐attR2‐CTEV‐2xHA_DEST, plasmids were described in detail before (Wehr et al, 2006)] to yield expression vectors, which were control‐digested using BsrGI. The plasmids for Nrg1 type I β1a and rat Nrg1 type III β1a have been described before (Wehr et al, 2006).

[4] = biological target: ERBB2-NTEV-tevS-GV + ERBB3-CTEV (Homo sapiens, UniProt P04626+P21860); assay: ERBB dimerization split TEV assay ERBB2/ERBB3; assay type: cell-based; details: 10 ng/ml EGFld
Sequence of ERBB2-NTEV-tevS-GV + ERBB3-CTEV (P04626 23-1255): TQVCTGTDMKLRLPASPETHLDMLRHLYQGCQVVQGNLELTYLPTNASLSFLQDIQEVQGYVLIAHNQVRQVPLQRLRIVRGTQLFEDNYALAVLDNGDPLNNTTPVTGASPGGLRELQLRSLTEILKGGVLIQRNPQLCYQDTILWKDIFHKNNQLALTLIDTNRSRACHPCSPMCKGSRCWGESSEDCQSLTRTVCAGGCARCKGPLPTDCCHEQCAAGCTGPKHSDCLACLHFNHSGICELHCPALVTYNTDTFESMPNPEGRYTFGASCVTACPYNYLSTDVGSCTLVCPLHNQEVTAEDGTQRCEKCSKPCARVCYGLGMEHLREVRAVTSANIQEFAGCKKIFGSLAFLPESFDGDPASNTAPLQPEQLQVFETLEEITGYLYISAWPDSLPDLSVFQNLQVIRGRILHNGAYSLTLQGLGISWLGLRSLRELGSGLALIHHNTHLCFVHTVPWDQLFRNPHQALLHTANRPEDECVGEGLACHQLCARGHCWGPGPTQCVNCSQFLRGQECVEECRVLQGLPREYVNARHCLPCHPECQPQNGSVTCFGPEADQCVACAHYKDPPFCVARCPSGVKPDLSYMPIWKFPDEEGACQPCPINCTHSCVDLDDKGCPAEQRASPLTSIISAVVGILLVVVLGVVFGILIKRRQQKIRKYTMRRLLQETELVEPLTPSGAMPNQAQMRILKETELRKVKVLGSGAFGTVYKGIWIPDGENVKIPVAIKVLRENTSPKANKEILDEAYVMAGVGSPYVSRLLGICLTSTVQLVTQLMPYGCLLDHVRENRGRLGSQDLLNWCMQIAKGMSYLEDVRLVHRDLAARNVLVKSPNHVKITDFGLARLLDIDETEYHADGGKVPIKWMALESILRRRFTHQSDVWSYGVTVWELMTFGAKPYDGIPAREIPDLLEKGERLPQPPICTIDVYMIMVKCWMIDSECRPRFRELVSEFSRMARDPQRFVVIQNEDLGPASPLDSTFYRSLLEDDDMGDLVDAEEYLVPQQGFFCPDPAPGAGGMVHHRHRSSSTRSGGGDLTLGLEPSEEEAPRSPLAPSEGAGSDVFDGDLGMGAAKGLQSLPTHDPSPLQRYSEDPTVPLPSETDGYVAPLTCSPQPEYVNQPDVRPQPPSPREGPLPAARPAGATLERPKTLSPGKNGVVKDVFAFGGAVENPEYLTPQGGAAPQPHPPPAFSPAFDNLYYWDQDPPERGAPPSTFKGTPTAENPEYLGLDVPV
Sequence of ERBB2-NTEV-tevS-GV + ERBB3-CTEV (P21860 20-1342): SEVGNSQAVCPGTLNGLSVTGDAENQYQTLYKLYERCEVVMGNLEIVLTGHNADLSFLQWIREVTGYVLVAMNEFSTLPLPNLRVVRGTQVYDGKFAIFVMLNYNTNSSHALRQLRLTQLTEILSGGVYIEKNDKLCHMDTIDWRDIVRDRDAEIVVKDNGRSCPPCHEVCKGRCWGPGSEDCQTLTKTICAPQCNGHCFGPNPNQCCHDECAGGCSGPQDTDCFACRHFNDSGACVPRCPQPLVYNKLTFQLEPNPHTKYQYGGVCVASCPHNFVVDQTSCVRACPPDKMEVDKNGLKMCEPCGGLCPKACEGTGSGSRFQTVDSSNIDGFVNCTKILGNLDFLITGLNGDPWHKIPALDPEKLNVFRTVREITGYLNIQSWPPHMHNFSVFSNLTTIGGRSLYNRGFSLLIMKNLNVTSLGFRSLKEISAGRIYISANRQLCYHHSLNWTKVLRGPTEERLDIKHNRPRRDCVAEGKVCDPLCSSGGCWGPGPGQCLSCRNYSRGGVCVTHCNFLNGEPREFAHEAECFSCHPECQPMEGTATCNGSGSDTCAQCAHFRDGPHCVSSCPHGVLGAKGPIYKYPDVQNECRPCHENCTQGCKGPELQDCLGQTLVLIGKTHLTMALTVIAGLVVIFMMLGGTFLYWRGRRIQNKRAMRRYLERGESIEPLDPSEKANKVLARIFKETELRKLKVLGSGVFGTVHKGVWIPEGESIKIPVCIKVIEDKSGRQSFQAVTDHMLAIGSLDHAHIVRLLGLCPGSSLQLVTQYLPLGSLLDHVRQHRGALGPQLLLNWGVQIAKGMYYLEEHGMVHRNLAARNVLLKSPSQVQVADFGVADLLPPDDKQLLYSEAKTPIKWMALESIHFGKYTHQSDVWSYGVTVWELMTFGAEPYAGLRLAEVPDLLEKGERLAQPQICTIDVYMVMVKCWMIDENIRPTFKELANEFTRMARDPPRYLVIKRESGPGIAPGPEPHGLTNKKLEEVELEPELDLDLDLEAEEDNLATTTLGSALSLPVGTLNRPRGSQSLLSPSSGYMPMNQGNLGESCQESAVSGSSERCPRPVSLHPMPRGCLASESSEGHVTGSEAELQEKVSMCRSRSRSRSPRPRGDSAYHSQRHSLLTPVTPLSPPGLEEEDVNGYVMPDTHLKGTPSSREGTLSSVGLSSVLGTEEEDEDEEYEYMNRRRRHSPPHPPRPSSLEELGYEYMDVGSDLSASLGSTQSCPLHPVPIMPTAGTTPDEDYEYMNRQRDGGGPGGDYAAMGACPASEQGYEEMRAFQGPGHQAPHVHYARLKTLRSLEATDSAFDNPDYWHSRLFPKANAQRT
Description: as §3

T1 sequence (Q61527 26-1308): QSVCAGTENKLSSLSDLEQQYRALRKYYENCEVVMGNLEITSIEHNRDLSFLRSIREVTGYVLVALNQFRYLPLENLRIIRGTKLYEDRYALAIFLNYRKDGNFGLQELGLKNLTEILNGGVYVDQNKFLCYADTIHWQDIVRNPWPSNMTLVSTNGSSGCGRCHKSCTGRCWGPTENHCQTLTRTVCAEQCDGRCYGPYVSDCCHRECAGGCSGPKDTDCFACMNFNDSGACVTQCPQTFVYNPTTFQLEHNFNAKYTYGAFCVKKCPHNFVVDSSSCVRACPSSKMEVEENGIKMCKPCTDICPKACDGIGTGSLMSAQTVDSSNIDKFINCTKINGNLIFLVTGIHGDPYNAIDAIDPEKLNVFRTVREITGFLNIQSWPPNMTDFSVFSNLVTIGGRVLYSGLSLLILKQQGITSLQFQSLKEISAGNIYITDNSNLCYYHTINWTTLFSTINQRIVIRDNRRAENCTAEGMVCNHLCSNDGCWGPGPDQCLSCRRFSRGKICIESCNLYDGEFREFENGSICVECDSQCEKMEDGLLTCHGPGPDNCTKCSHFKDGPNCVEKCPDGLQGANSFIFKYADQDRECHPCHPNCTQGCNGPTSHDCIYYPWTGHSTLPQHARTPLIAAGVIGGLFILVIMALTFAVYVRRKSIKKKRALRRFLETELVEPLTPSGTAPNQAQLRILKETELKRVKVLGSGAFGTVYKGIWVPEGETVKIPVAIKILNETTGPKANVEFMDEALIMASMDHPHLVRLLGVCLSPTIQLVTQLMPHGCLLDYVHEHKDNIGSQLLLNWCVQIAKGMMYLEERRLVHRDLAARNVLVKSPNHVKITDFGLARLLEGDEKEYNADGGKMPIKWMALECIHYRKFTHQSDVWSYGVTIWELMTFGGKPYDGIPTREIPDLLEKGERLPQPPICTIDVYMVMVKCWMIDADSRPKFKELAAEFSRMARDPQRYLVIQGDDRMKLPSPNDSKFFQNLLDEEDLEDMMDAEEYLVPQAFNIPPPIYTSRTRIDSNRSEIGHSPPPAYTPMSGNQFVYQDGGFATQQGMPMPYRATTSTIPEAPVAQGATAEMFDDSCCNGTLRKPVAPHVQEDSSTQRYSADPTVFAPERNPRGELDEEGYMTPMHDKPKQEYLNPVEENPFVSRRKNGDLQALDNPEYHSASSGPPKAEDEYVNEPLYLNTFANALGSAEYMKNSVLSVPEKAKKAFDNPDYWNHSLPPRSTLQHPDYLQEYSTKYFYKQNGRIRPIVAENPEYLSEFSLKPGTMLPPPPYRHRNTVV

CC(=O)S[C@@H]1CC2=CC(=O)CC[C@]2(C)[C@H]2CC[C@@]3(C)[C@@H](CC[C@@]34CCC(=O)O4)[C@H]12 [Spironolactone]
phospho-Erbb4 levels (p-ERBB4-Y1284 antibody) (Erbb4 [1]): robust reduction | Z-SCORE (NRG1-ERBB4 signaling): 9.25 | ERBB4 phosphorylation levels at Tyr1056 (ERBB4 [2]): reduces but not abolishes the phosphorylation levels | phospho-Limk1 levels (Limk1): markedly upregulated | IC50 [3]: 4.66 µM | IC50 [4]: 9.23 µM
